The source of these data is patent US20060052451A1, “Method” (priority 2002, published 2006).

The target of series [1] is T1, PPAR delta (Homo sapiens, UniProt Q03181).
T1 construct: 25 ng of vector DNA carrying PPAR alpha, delta or gamma; expressed in transfected cells; host or cells: COS-1 (African green monkey kidney cells)
T1 sequence (Q03181 1-441): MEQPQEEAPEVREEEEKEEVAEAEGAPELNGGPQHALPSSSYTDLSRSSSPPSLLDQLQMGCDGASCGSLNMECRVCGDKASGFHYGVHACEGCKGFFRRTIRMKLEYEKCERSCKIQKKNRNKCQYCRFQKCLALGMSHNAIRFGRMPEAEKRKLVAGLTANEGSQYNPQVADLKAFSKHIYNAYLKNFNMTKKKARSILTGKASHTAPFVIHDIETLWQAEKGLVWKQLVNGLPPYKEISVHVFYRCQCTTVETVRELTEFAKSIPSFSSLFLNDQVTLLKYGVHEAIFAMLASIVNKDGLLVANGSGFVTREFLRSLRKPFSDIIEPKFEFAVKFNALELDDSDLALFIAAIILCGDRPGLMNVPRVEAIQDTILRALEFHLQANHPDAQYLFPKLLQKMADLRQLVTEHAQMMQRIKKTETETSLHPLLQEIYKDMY
Nature of the series: PPAR delta transactivation assay in COS-1 cells. The format is cell-based. Further details: Fold activation of PPAR delta: dose or concentration left out as unconfirmed. As to conditions: for Fold activation of PPAR delta: mean±SD n=3; for Inhibition of activation of PPAR delta (by a factor of): transactivation assay.

The nature of series [2]: 7-day oral gavage study, metabolic parameters, body weight and food consumption in CR SD rats. It counts as in vivo, rat. The conditions noted are these: for Cholesterol (plasma) / Glucose (plasma) / Insulin (plasma) / Triglycerides (plasma): n=5; for Weight loss: 7 days; for Plasma glucose, % of control values: dose not stated. As to the method:
Two groups (n=5) of CR SD rats (approximately 300 g) were treated with 2 dose levels of perfluorinated compounds (15 and 25 mg/kg/day body weight). Animals were administered test substances, dissolved in corn oil, by oral gavage, daily for 7 days. One group of 20 CR SD rays was also treated with vehicle (corn oil) alone. Body weight and food consumption were monitored daily.
Twenty-four hours after the last dose the animals were killed by an increasing concentration of carbon dioxide. Blood was collected by cardiac puncture and plasma was prepared and stored at −70° C. until analysed.
Plasma was analysed for triglycerides, cholesterol, and glucose, using kits purchased from Sigma. Concentrations of plasma insulin were determined using a commercially available enzyme-immunoassay-based kit from Amersham Biosciences. All assays were carried out as specified by the manufacturer.

Series [3] is described as follows: Plasma levels of PFOA after 11 days oral dosing in SD rats (LC/MS/MS). It counts as in vivo, rat. As to conditions: 25 mg/kg oral daily for 11 days, 24 hours after final administration. The protocol: The study consisted of one control group of 8 male CD Sprague Dawley rats (8-10-weeks old; obtained from Harlan, UK) and 4 test groups that contained 4 rats. Animals received powdered RM1 diet ad libitum for the duration of the study. […] All chemicals were dissolved in Mazola corn oil (at 2.5 mg/ml) and test compounds were administered at 10 ml/kg bodyweight. Control animal received Mazola corn oil only. All animals were sacrificed after 11 days. Animals were killed by exposure to rising concentrations of CO2, and blood was harvested into lithium/heparin tubes for plasma.
Rat plasma samples were denatured by adding acetonitrile, and the amount of perfluorooctanoic acid (PFOA) present was determined by LC/MS/MS.

In series [4] the target is T2, human PPAR-alpha ligand binding domain (Homo sapiens, UniProt Q07869).
T2 sequence (Q07869 179-468): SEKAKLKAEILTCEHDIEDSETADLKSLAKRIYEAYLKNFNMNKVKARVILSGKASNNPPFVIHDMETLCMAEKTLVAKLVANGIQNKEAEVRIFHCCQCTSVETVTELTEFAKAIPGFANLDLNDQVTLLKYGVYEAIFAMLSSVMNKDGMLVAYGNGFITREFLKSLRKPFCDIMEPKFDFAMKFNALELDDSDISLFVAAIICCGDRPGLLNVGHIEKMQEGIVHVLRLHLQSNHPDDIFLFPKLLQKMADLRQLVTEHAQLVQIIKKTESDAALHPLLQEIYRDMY
Nature of the series: PPAR alpha ligand binding (displacement of DAUDA). As to conditions: for Kd: PPAR Receptor Binding Kd Alpha (apparent Kd), DAUDA displacement.

Series [5] has as its system HT-29 cells (human colon tumour-derived). Nature of the series: SRB growth inhibition assay, HT-29 cells. The format is cell-based. The conditions noted are these: 48 hours exposure. The protocol:
(§1) The effect of perfluorinated compounds on the inhibition of tumour cell growth was assessed iii vitro using three human tumour-derived cell lines. Cancer cell lines were tested using the sulphorhodamine B (SRB) assay (which measures cellular protein and is directly related to cell number), which is utilised by the […] to screen anti-cancer agents.
(§2) HT-29 cells (human colon tumour-derived), MCF7 cells (human breast cancer-derived) and PC3 cells (human prostate cancer-derived) were harvested and diluted (to 5×10^4 cells per ml, 1×10^5 cells per ml and 7.5×10^4 cells per ml respectively) in RPMI 1640 medium containing 5% FBS, 2 mM glutamine and. 50 μg/ml gentamicin. 100 μl of cell suspension per well was added to 96 well plates and allowed to attach overnight. Cells were exposed to test compounds dissolved in DMSO in 100 μl of medium to give final drug concentrations of 0, 0.3, 1, 3, 10, 30, 100, 300, 1000 and 3000 μM (and DMSO at 0.25%). (n=6 for each drug concentration). After 48 hours, cells were fixed in 10% trichloroacetic acid (TCA) at 4° C. for 1-2 hours then washed using water and subsequently air-dried. 100 μl SRB solution (0.4%) in 1% Acetic Acid was added to each well, and plates were incubated at room temperature for 10 minutes. Unbound dye was removed by washing with 1% acetic acid. Plates were air-dried and bound stain was solubilised in 10 mM Tris base and the absorbance read at 520 nm.

The subject of series [6] is MCF7 cells (human breast cancer-derived). Nature of the series: SRB growth inhibition assay, MCF7 cells. As to conditions: 48 hours exposure. It counts as cell-based. The protocol: as §1, §2
Series [7] concerns PC3 cells (human prostate cancer-derived). Nature of the series: SRB growth inhibition assay, PC3 cells. The format is cell-based. The protocol: as §1, §2
Series [8] has as its target T3, human PPAR-gamma ligand binding domain (Homo sapiens, UniProt P37231).
T3 sequence (P37231 202-505): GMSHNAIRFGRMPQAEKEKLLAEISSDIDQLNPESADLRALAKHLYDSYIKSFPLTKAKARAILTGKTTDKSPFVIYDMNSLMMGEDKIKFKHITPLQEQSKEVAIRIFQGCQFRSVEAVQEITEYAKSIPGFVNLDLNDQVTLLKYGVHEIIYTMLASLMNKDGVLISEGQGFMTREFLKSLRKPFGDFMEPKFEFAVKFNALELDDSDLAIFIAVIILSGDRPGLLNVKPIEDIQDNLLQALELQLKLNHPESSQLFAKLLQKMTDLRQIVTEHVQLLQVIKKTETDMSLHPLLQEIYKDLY
Description: PPAR gamma ligand binding (displacement of cis-parinaric acid).

Series [9] concerns three human tumour-derived cell lines (HT-29, MCF7, PC3). Nature of the series: SRB growth inhibition, summary over the three human tumour cell lines. It counts as cell-based. As to conditions: Homo sapiens; over HT-29, MCF7 and PC3. The protocol: as §1, §2
[10] abbreviates: 15 mg/kg/day oral gavage 7 days.
Setting [11] is: 25 mg/kg/day oral gavage 7 days.
Where [12] appears, read: 15 and 25 mg/kg/day, versus control.
Where [13] appears, read: Homo sapiens, PC-3, 48 hours exposure.

As for `CCCCC[C@H](O)/C=C/[C@@H]1[C@H]2C/C(=C/CCCC(=O)O)C[C@H]2C[C@H]1O` [carbaprostacyclin, reference compound], in [1], the “Fold activation of PPAR delta” value came out at 2.17 ± 0.42 fold.

Take `FC(F)(F)C(F)(F)C(F)(F)C(F)(F)C(F)(F)C(F)(F)C(F)(F)C(F)(F)F` [PFO, Perfluorooctane]: in series [2] (setting [10]), the “Cholesterol (plasma)” value amounted to 1.99 ± 0.46 mmol/L, the “Glucose (plasma)” value worked out at 18.41 ± 1.41 mmol/L, the “Insulin (plasma)” value was determined as 99.58 ± 126.1 ng/mL and the “Triglycerides (plasma)” value was determined as 1.03 ± 0.35 mmol/L. In series [2] (25 mg/kg), the “Plasma glucose raised by” value is 3% and the “Plasma insulin, % of control values” was 33.5%. Further, in series [2] (setting [11]), the “Cholesterol (plasma)” value was 1.70 ± 0.11 mmol/L, the “Glucose (plasma)” value was 17.13 ± 2.37 mmol/L, the “Insulin (plasma)” value was 61.81 ± 45.81 ng/mL and the “Triglycerides (plasma)” value turned out to be 2.09 ± 2.33 mmol/L.

Turning to `CCOC(=O)C(F)(F)C(F)(F)C(F)(F)C(F)(F)C(F)(F)C(F)(F)C(F)(F)F` [EPOA, Ethylperfluorooctanoate], in series [3], the “Plasma concentration of PFOA (free acid)” value is “equimolar concentrations of PFOA”.

In general, IC50 refers to the concentration needed to halve the response being measured. For `O=C(O)C(F)(F)C(F)(F)C(F)(F)C(F)(F)C(F)(F)C(F)(F)C(F)(F)F` [PFOA, Perfluorooctanoic acid], in [2] (15 mg/kg), the “Plasma insulin, % of control values” was 2.98% and the Weight loss came out at 9.4%. In addition, in [2] (setting [10]), the “Cholesterol (plasma)” value was determined as 1.01 ± 0.086 mmol/L, the “Glucose (plasma)” value amounted to 10.30 ± 1.23 mmol/L, the “Insulin (plasma)” value came out at 5.51 ± 8.88 ng/mL and the “Triglycerides (plasma)” value came out at 0.37 ± 0.04 mmol/L. Moreover, in series [2] (25 mg/kg), the “Plasma cholesterol, % of control values” amounted to 49.2%; the “Plasma insulin, % of control values” came to 30.74%; the “Plasma triglycerides, % of control values” is given as 16.8%. For the same compound, the Bodyweight lost in [2] (25 mg/kg, after day 6, terminated early) stood at 11.7%. In series [2] (setting [11]), the “Cholesterol (plasma)” value was determined as 0.98 ± 0.35 mmol/L, the “Glucose (plasma)” value was found to be 10.01 ± 3.90 mmol/L, the “Insulin (plasma)” value was 56.76 ± 46.5 ng/mL and the “Triglycerides (plasma)” value was 0.3 ± 0.13 mmol/L. Besides, the Food consumption result in [2] (setting [12]) is “dose-related, decreases in food consumption”. In addition, the “Plasma glucose, % of control values” in [2] was found to be 60%. For the same compound, the “Inhibition of activation of PPAR delta (by a factor of)” value in series [1] was determined as 4. Also, the Kd in series [4] came to 6 µM. This compound registered an IC50 in series [5] of 398 µM. The compound further returned an IC50 in series [6] of 244 µM. The compound further registered an IC50 in [7] (48 hours exposure) of 215 µM.

On to `O=C(O)C(F)(F)C(F)(F)C(F)(F)C(F)(F)C(F)(F)C(F)(F)C(=O)O` [PFSA, Perfluorosuberic acid (C8)], for which, in series [8], the Kd was found to be 13 µM and the “Reduction in binding affinity for PPAR gamma compared to PFOA” value is given as about 40 fold. In addition, in series [2] (15 mg/kg), the “Plasma insulin, % of control values” amounted to 28.7%. In series [2] (setting [10]), the “Cholesterol (plasma)” value came to 1.76 ± 0.15 mmol/L, the “Glucose (plasma)” value turned out to be 16.41 ± 2.09 mmol/L, the “Insulin (plasma)” value is 52.96 ± 26.55 ng/mL and the “Triglycerides (plasma)” value was 0.95 ± 0.42 mmol/L. In addition, in series [2] (setting [11]), the “Cholesterol (plasma)” value came to 1.92 ± 0.36 mmol/L, the “Glucose (plasma)” value was 15.9 ± 1.43 mmol/L, the “Insulin (plasma)” value worked out at 109 ± 103.2 ng/mL and the “Triglycerides (plasma)” value stood at 1.22 ± 0.56 mmol/L. Besides, in series [1], the “Fold activation of PPAR delta” value turned out to be 0.62 ± 0.31 fold and the “Inhibition of activation of PPAR delta (by a factor of)” value was 1.6. In addition, in series [4], the “Reduction in binding affinity for PPAR alpha compared to PFOA” value was 7 fold and the Kd was 44 µM. Besides, in [5] (Homo sapiens, HT-29, 48 h), the IC50 is over 3000 µM. The compound also had an IC50 in [9] of about 3000 µM. In series [6] (Homo sapiens, MCF7, 48 h), the IC50 was over 3000 µM. In addition, the IC50 in series [7] (setting [13]) is over 3000 µM.

For the compound `N.O=C(O)C(F)(F)C(F)(F)C(F)(F)C(F)(F)C(F)(F)C(F)(F)C(F)(F)F` [APFO, Ammonium perfluorooctanoate], in [2] (15 mg/kg), the Food consumption result is recorded as “did not decrease further after day 6”; the “Plasma insulin, % of control values” came to 13.5%; the Weight loss came out at 1%. Also, in series [2] (setting [10]), the “Cholesterol (plasma)” value amounted to 1.00 ± 0.36 mmol/L, the “Glucose (plasma)” value is 13.12 ± 0.74 mmol/L, the “Insulin (plasma)” value was determined as 25.02 ± 20.27 ng/mL and the “Triglycerides (plasma)” value is 0.25 ± 0.07 mmol/L. In series [2] (25 mg/kg), the “Plasma cholesterol, % of control values” was 56.2%; the “Plasma insulin, % of control values” was 8.3%; the “Plasma triglycerides, % of control values” is 19.1%. In addition, the Weight loss in series [2] (25 mg/kg (higher dose)) is on record as 11%. In addition, in [2] (setting [11]), the “Glucose (plasma)” value was determined as 11.99 ± 1.87 mmol/L, the “Insulin (plasma)” value worked out at 15.29 ± 9.72 ng/mL and the “Triglycerides (plasma)” value is 0.34 ± 0.09 mmol/L. The “Bodyweight change” value in [2] (15 and 25 mg/kg/day, continued till end of treatment) is on record as “lost bodyweight after day 3”. In series [2] (setting [12]), the Food consumption entry is “dose-related, decreases in food consumption”. The “Plasma glucose, % of control values” in series [2] was determined as 72.6%. In series [4], the Kd was found to be 8 µM. In [5] (Homo sapiens, HT-29, 48 h), this compound registered an IC50 of 293 µM. Also, the IC50 in series [9] is 200 to 600 µM. Further, half-maximal inhibition in [6] (Homo sapiens, MCF7, 48 h) (IC50) required 211 µM. This compound returned an IC50 in [7] (setting [13]) of 215 µM.
